Blank lines part the entries; values can stand above or below the molecule they belong to.
Key:
[1] = biological target: Serine/threonine-protein kinase 24 (Homo sapiens) (UniProt Q9Y6E0); test: Selectivity interaction (Ambit KINOMEscan and KiNATiv profiling in Jurkat cells) EUB0000090b STK24; format: cell-based; settings: at 1 µM
[2] = biological target: T1, Rhodopsin kinase GRK7 (Homo sapiens) (UniProt Q8WTQ7); test: Selectivity interaction (Kinase panel (Invitrogen)) EUB0000639a GRK7; settings: at 200 nM
T1 sequence (whole entry): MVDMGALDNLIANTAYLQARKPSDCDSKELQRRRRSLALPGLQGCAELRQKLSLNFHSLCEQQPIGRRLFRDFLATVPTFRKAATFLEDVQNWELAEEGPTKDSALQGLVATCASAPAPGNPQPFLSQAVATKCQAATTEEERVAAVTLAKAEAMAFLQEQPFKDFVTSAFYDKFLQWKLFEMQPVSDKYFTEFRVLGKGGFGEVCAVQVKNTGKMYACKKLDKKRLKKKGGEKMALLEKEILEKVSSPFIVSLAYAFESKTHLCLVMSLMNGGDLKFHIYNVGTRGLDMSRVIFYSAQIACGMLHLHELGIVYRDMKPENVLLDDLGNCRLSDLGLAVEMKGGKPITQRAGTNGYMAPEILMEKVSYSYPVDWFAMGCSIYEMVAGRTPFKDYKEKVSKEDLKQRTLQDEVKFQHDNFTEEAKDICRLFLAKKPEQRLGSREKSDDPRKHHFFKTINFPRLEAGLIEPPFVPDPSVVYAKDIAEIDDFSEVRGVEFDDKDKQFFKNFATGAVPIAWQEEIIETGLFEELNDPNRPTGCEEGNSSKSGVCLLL

[3] = biological target: Protein arginine N-methyltransferase 5 (Homo sapiens, UniProt O14744); settings: at 10 µM
[4] = biological target: Bone morphogenetic protein receptor type-1B (Homo sapiens, UniProt O00238); test: Selectivity interaction (KinomeScan (DiscoverX)) EUB0000092b BMPR1B; settings: at 10 µM
[5] = biological target: T2, Mitogen-activated protein kinase kinase kinase 3 (Homo sapiens) (UniProt Q99759); test: Selectivity interaction (ActivX KiNativ screen (ex vivo kinase selectivity in human PBMCs)) EUB0001619a MAP3K3; format: cell-based; settings: PBMC, at 1 µM
T2 sequence (whole entry): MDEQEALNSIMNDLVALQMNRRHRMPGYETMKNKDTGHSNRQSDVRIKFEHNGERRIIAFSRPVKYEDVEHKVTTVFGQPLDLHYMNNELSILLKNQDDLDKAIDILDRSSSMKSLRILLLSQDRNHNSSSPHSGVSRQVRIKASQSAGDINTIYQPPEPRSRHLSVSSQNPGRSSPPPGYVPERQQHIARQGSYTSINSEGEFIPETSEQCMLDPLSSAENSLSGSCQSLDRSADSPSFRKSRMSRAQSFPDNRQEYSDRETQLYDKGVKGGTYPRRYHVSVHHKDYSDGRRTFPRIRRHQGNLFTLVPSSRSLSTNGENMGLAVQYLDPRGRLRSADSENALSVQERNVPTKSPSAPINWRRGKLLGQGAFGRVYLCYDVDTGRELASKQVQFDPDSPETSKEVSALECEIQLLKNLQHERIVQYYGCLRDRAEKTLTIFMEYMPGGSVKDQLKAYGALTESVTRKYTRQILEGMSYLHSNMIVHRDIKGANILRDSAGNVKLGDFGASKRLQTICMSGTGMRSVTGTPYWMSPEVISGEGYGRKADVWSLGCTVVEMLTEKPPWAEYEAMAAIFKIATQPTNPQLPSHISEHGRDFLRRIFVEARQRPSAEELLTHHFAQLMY

[6] = biological target: T3, Ephrin type-B receptor 2 (Homo sapiens) (UniProt P29323); test: Selectivity interaction (KinomeScan (DiscoverX)) EUB0000607a EPHB2; settings: at 10 µM
T3 sequence (whole entry): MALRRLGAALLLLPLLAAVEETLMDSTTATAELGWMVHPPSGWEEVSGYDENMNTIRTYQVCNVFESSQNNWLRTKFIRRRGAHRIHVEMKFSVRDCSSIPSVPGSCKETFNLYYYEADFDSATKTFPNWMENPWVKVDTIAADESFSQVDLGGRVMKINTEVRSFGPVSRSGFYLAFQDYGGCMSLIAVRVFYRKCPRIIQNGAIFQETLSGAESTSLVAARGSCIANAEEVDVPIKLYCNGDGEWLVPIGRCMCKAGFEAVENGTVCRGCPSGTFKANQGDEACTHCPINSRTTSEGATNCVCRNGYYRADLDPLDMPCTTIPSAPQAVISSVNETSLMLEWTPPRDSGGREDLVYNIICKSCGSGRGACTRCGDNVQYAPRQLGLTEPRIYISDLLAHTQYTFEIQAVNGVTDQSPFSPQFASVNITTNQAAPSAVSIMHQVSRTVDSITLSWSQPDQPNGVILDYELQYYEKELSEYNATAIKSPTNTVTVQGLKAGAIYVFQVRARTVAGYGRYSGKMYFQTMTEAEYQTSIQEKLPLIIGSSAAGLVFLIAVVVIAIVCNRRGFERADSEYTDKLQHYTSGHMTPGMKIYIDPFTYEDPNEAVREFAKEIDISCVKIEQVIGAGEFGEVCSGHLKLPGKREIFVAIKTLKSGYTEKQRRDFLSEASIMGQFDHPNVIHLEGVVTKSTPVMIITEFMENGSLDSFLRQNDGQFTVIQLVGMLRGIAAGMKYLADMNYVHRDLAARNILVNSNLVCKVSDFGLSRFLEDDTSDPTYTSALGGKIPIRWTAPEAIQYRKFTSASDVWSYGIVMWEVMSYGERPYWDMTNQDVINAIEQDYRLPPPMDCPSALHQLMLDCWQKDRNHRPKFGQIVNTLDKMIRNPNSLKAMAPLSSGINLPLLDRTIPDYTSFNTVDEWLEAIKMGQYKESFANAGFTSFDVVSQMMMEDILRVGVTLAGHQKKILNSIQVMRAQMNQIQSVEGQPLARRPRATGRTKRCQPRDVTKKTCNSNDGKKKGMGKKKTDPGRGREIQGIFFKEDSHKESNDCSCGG

Sequence of Protein arginine N-methyltransferase 5 (O14744 whole entry): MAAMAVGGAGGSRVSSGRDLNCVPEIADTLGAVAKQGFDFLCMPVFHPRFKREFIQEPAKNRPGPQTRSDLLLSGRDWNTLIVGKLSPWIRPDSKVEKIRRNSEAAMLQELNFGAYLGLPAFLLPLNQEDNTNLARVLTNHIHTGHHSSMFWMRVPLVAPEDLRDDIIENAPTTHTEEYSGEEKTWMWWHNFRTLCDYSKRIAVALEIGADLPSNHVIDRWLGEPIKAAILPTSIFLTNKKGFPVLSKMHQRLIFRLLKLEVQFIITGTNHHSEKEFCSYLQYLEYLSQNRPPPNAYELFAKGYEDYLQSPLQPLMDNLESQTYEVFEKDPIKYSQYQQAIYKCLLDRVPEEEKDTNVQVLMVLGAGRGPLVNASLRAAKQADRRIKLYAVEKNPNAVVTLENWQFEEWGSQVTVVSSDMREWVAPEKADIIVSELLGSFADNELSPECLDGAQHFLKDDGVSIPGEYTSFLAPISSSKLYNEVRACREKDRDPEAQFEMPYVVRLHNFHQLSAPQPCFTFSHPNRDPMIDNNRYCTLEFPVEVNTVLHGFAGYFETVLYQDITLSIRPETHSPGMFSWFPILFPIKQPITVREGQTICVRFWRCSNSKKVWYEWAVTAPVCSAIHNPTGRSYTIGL
Sequence of Serine/threonine-protein kinase 24 (Homo sapiens) (Q9Y6E0 whole entry, looked up): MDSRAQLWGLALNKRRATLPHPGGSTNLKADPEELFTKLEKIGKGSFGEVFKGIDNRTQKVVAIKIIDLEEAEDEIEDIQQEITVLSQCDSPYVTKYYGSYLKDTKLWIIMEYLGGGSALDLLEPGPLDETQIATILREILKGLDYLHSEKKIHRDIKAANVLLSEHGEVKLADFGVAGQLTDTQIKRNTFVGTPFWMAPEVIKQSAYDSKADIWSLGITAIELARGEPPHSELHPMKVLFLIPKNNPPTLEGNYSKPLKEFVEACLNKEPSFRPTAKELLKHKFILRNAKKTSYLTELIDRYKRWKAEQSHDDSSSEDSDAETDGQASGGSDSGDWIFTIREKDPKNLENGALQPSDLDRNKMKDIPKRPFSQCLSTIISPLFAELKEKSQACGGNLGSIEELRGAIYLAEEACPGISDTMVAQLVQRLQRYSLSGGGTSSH
Sequence of Bone morphogenetic protein receptor type-1B (O00238 whole entry): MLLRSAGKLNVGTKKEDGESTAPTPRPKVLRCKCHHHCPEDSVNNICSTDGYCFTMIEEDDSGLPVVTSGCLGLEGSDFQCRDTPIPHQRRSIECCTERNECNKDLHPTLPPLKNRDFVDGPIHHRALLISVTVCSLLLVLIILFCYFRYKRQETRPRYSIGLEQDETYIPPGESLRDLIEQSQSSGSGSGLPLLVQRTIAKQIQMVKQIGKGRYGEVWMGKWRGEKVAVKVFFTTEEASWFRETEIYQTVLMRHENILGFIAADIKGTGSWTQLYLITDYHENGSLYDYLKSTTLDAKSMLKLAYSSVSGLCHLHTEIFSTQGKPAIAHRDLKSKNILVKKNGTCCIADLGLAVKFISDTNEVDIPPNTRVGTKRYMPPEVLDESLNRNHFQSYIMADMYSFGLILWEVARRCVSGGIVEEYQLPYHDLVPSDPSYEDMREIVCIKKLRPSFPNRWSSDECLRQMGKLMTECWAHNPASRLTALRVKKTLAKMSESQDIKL

SMILES: CN(C)C/C=C/C(=O)Nc1ccc(C(=O)N2CCCC(Nc3ncc(Cl)c(-c4c[nH]c5ccccc45)n3)C2)cc1 (stereo unspecified)
% of control [1]: 94%

% of inhibition [2]: 1.87%
SMILES: CC[C@@H]1[C@H](F)C(=O)N[C@@H]1COc1nccc2cc(C(N)=O)c(OC)cc12 [ZIMLOVISERTIB]

% activity [3]: > 90%
SMILES: CNCCN1CCC(c2cc(CN(C)C(=O)c3cccc(Oc4ccccc4)c3)ccn2)CC1

SMILES: CCC(=O)N1CCN(c2ccc(-n3c(=O)ccc4cnc5ccc(-c6cnc7ccccc7c6)cc5c43)cc2C(F)(F)F)CC1
% of control [4]: 100%

SMILES: N#Cc1cccc(-c2c[nH]c3ncnc(N4CCOCC4)c23)c1
% of inhibition [5]: 13%

SMILES: CNC(=O)Nc1ccc(-c2nc(N3CC4CCC(C3)O4)c3cnn(C4CCC5(CC4)OCCO5)c3n2)cc1
% of control [6]: 78%

Source: ChEMBL document CHEMBL5465560, “Selectivity Literature for EUbOPEN Chemogenomic Library” (2024)
